Holding throughout (assay): DTP human tumour cell line panel, 48 h
For assay [1], the system named is HT29 colon.
Assay [2] has as its system UO-31 renal.
Assay [3] concerns EKVX NSCLC.
Assay [4] concerns NCI-H460 lung.
In assay [5] the test system is SR leukemia.
Assay [6] relates to SF-295 CNS.
In assay [7] the test system is LOX IMVI melanoma.
The test system of assay [8] is OVCAR-8 ovarian.
The test system of assay [9] is NCI-H23 lung.
The subject of assay [10] is M14 melanoma.
In assay [11] the test system is SF-268 CNS.
The subject of assay [12] is SNB-75 CNS.

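How tested: cells in 96-well plates exposed to compound for 48 hours at five concentrations. The concentration for full growth arrest is given as TGI.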

Drawing on PubChem BioAssay (NCI), this text covers TGI for 18 compounds.

For the compound `Cc1cc(C)nc(Nc2nc3ccc([N+](=O)[O-])cc3[nH]2)n1`, the TGI in assay [1], in assay [2], in assay [3], in [4], in [5] and in assay [6] was greater than 100 µM in each case. Further, the TGI in assay [7], in assay [8], in assay [9], in assay [10] and in assay [11] was greater than 100 µM each time.

Consider `O=C(Nc1nc(C23CC4CC(CC(C4)C2)C3)cs1)c1cc2cc(Br)cc(Br)c2oc1=O`, for which the TGI in assay [1], in [2], in assay [3], in [4], in assay [5] and in [6] was greater than 100 µM each time. The TGI in [7] is greater than 100 µM; in [12], 85.5 µM; in [8], greater than 100 µM; in assay [9], greater than 100 µM; in [11], greater than 100 µM.

For the compound `CC(=O)c1ccc2c(c1)oc(=O)n2CCN1CCCCC1`, the total growth inhibition concentration (TGI) in assay [1], in [3], in assay [4], in assay [5], in assay [6] and in [7] was greater than 100 µM in each case. Also, the concentration for total growth inhibition (TGI) in assay [8], in assay [9], in assay [10] and in assay [11] was greater than 100 µM each time.

Take `Cc1ccc(S(=O)(=O)NNC(=S)Nc2cccc3ccccc23)cc1`: the TGI in [1], in assay [2], in assay [3], in assay [4], in [5] and in assay [6] was greater than 100 µM throughout. Further, the total growth inhibition concentration (TGI) was 77.5 µM in assay [12]; greater than 100 µM in [8]; greater than 100 µM in [9]; greater than 100 µM in assay [10]; greater than 100 µM in assay [11].

`COc1cc2[nH]c(-c3cccc(N(C)C)c3)cc(=O)c2cc1OC`: the TGI is greater than 25.9 µM in [1]; greater than 100 µM in [2]; greater than 100 µM in assay [3]; greater than 100 µM in assay [4]; greater than 100 µM in assay [5]; greater than 21.4 µM in assay [6]. The TGI in assay [7], in assay [8], in assay [9], in assay [10] and in assay [11] was greater than 100 µM each time.

For `NC1CC(=O)c2cc(Br)sc21` (stereo not given), the TGI in assay [1], in assay [2], in [3], in [4], in assay [5] and in assay [12] was greater than 100 µM throughout. Also, the TGI in assay [8], in [10] and in [11] was greater than 100 µM in each case.

Consider `CCCCCCCCCCCCCCCCP(=O)(O)OP(=O)(O)OCC1OC(n2cnc3c(N)ncnc32)C(O)C1O` (stereo not given), for which the TGI in assay [1] is 43.8 µM; in assay [2] it was 30 µM; in assay [3] it was greater than 100 µM; in assay [4], 58.4 µM; in assay [5], greater than 100 µM; in assay [7], 70.5 µM. Also, the TGI in assay [12] was 45.3 µM; in assay [8] it was 43.9 µM; in assay [9], 68.2 µM; in [10], 56.7 µM; in [11], 95.2 µM.

For the compound `COc1ccc(CN(CCc2c[nH]c3ccccc23)Cc2ccc(OC)cc2)cc1`, the TGI in assay [1] was 6.41 µM; in assay [2], 6.8 µM; in assay [3], 20.5 µM; in [4], greater than 61.7 µM; in assay [5] it was greater than 100 µM; in assay [6], 5.78 µM. The figures for the TGI in assay [12], in [9] and in assay [11] were 15.1 µM, 10.5 µM and 18 µM, respectively.

`CCOC(=O)CC[C@@H](NC(=O)c1ccc(N[C@@H]2c3cc4c(cc3C(c3cc(OC)c(O)c(OC)c3)C3C(=O)OC[C@@H]32)OCO4)cc1)C(=O)OCC` (stereo not given in full): the TGI was 0.751 µM in [1]; 0.194 µM in assay [2]; 0.0799 µM in assay [3]; 0.0174 µM in [4]; greater than 10 µM in assay [5]; 0.0497 µM in assay [6]. The TGI in [9] is 0.0424 µM; in assay [10], greater than 10 µM; in assay [11], 0.0686 µM.

As for `C[Si](C)(C)OC1c2[nH]c3ccccc3c2CN2C(=O)CCC12` (stereo not given), the TGI in [1], in assay [2], in [3], in [4], in assay [5] and in assay [7] was greater than 100 µM throughout. In addition, the TGI in assay [12], in [8], in assay [10] and in [11] was greater than 100 µM in each case.

Regarding `C=C[C@@]1(C)CC(=O)[C@]2(O)[C@@]3(C)[C@@H](OC(C)=O)CCC(C)(C)[C@@H]3[C@H](OC(C)=O)[C@H](OC(C)=O)[C@@]2(C)O1`, the TGI in [1], in assay [2], in assay [3], in assay [4], in [5] and in assay [6] was greater than 100 µM in each case. For the same compound, the TGI in assay [7], in assay [12], in [8], in [9] and in assay [10] was greater than 100 µM throughout.

For the compound `CCN(CC)Cc1cc(Nc2c3ccccc3nc3c2[nH]c2ccccc23)ccc1O`, the TGI in [1] turned out to be 2.01 µM; in assay [2] it was 3.56 µM; in assay [3], 6.32 µM; in assay [4], 2.71 µM; in [5] it was 1.01 µM; in [6], 2.83 µM. In addition, the TGI in [7] was found to be 2.57 µM; in assay [12] it was 3.35 µM; in assay [8] it was 3.11 µM; in [9], 2.8 µM; in assay [10], 3.11 µM.

For `C=C(C)[C@@H]1CC[C@]2(C(=O)O)CC[C@]3(C)[C@H](CC[C@@H]4[C@@]5(C)CC[C@H](C(=O)/C=C/c6ccc(O)cc6)C(C)(C)[C@@H]5CC[C@]43C)[C@@H]12`, the TGI in assay [1] was 45.4 µM; in [2], 18.4 µM; in assay [3] it was 24.4 µM; in assay [4] it was 17.3 µM; in assay [5] it was greater than 100 µM; in assay [6] it was 21.7 µM. Also, the TGI in assay [7] was determined as 22.4 µM; in [8], 53.9 µM; in assay [9] it was 20.8 µM; in assay [10], 21.9 µM; in assay [11], 94.6 µM.

For `COC(=N)C12C(N)=NC(OC)(OC)C1(C#N)C21C(=O)N(c2ccccc2)N=C1C` (stereo not given), the TGI in assay [1], in assay [2], in [3], in assay [4], in assay [5] and in assay [6] was greater than 100 µM each time. Moreover, the concentration for total growth inhibition (TGI) in assay [12], in assay [8], in [9], in assay [10] and in assay [11] was greater than 100 µM each time.

As to `COC(=O)CC1C(=O)OCc2c1cc1n(c2=O)Cc2c-1nc1ccccc1c2OC` (stereo not given), the total growth inhibition concentration (TGI) is greater than 100 µM in assay [1]; greater than 100 µM in assay [2]; greater than 100 µM in assay [3]; greater than 100 µM in [4]; 40.8 µM in [5]; greater than 100 µM in [7]. The TGI in [12] was greater than 100 µM; in [8] it was greater than 100 µM; in [9] it was 97.9 µM; in assay [10], greater than 100 µM; in [11] it was greater than 100 µM.

Turning to `Cc1sc2nc3n(c(=O)c2c1C)N=C(c1ccc(Cl)cc1)CS3`, the TGI in [1], in assay [2], in assay [3], in assay [4], in assay [5] and in assay [6] was greater than 100 µM throughout. The TGI in assay [7], in assay [12], in assay [8], in assay [9] and in assay [11] was greater than 100 µM each time.

In the case of `COC(=O)C1(O)c2ccccc2N=C2C(=O)c3ccccc3N21` (stereo not given), the total growth inhibition concentration (TGI) in [1], in assay [2], in assay [3], in assay [4], in [5] and in [6] was greater than 100 µM throughout. For the same compound, the TGI in [7], in [12], in assay [8], in assay [9] and in assay [11] was greater than 100 µM in each case.

`COC(=O)N/N=C/c1oc(-c2cccc([N+](=O)[O-])c2)c(-c2cccc([N+](=O)[O-])c2)c1[N+](=O)[O-]`: the TGI in [1], in [2], in assay [3], in [4], in assay [5] and in assay [6] was greater than 100 µM each time. In addition, the TGI in assay [7], in [8], in assay [9], in assay [10] and in [11] was greater than 100 µM throughout.
